One assay has as its system D2 receptor subtype. In words: pharmacological studies at D2 receptor subtype.
The target in assay [1] is muscarinic receptors (^3 H-oxotremorine-M binding). In words: ^3 H-oxotremorine-M binding inhibition. To be noted: radioligand ^3 H-oxotremorine-M; read-out: inhibition constant (Ki), binding of ^3 H-oxotremorine-M.
Assay [2] deals with m4 receptors (CHO m4 cells). Briefly: cAMP formation in CHO m4 cells treated with pertussis toxin. The assay is classed as cell-based. The text has this:
Muscarinic agonists stimulate the formation of cAMP up to 10 fold in CHO m4 cells treated with pertussisi toxin and the pharmacology is consistent with the mediation by m4 receptors. Eckols K. Soc. Neurosci Abstr., 21:2040 (1995).

Another assay addresses 5HT1D receptor subtype. Briefly: 5HT1D receptor affinity. Format: binding.

Experimental findings from US6043258A (Eli Lilly and Company, priority 1998, dated 2000) are described below.

`CCCCCCOc1nsnc1C1=CCCN(C)C1` [xanomeline, 3-(4-hexyloxy-1,2,5-thiadiazol-3-yl)-1,2,5,6-tetrahydro-1-methylpyridine]: the “activity at the D2 receptor subtype” value with D2 receptor subtype is on record as “active at the D2 receptor subtype”. Moreover, the Ki (commonly the dissociation constant of the complex between target and ligand, obtained from inhibition or displacement) in assay [1] was 2 nM; at 5HT1D receptor subtype it was 180 nM. In addition, in assay [2], the “stimulation of the formation of cAMP” value was “efficaciously and potently stimulated the formation of CAMP”.
